Assay results: patent publication US8716292B2, “Riminophenazines with 2-(heteroaryl)amino substituents and their anti-microbial activity” (priority 2010, dated 2014)
Converted amounts (≈) assume the structure as drawn. Where two headings read alike, the source gives them in different places.

Test system: Mycobacterium tuberculosis H37Rv strains
Assay: In vitro assay for antimicrobial susceptibility (microplate Alamar blue MIC)
Format: cell-based
Settings: Mycobacterium tuberculosis, H37RV, read-out: MIC (μg/mL) against H37Rv
[1] = in vitro, Mycobacterium tuberculosis H37Rv strains
[2] = 7H9, Alamar blue, inhibition ≧90%

| Compound | MIC [1] [µg/mL] | MIC [2] [µg/mL] |
| --- | --- | --- |
| COc1ncccc1Nc1cc2nc3cc(F)ccc3n(-c3ccc(Cl)cc3)c-2c/c1=N\C(C)C [TBI-929, 8-Fluoro-5-(4-chlorophenyl)-3-(1-methylethyl)imino-2-(2-methoxy-3-pyridyl)amino-3,5-dihydrophenazine] | 0.125 (≈ 0.256 µM) |  |
| COc1ccc(Nc2cc3nc4ccccc4n(-c4ccc(F)cc4)c-3c/c2=N\C(C)C)cn1 [TBI-930] | 0.494 (≈ 1.09 µM) |  |
| COc1ccc(Nc2cc3nc4ccccc4n(-c4ccc(F)cc4)c-3c/c2=N\C2CC2)cn1 [TBI-931, 5-(4-Fluorophenyl)-3-cyclopropyimino-2-(6-methoxy-3-pyridyl)amino-3,5-dihydrophenazine] | 0.238 (≈ 0.527 µM) |  |
| COc1ccc(Nc2cc3nc4ccccc4n(-c4ccc(F)cc4)c-3c/c2=N\C2CCCCC2)cn1 [TBI-932, 5-(4-Fluorophenyl)-3-cyclohexylimino-2-(6-methoxy-3-pyridyl)amino-3,5-dihydrophenazine] | 0.148 (≈ 0.3 µM) |  |
| COc1ccc(Nc2cc3nc4ccccc4n(-c4ccc(F)cc4)c-3c/c2=N\[C@H]2CC[C@H](OC)CC2)cn1 [TBI-933, 5-(4-Fluorophenyl)-3-(1′,4′-trans-4-methoxycyclohexyl)imino-2-(6-methoxy-3-pyridyl)amino-3,5-dihydrophenazine] | 0.175 (≈ 0.334 µM) |  |
| COc1ccc(Nc2cc3nc4ccccc4n(-c4ccc(F)cc4)c-3c/c2=N\C2CCC2)cn1 [TBI-934, 5-(4-Fluorophenyl)-3-cyclobutylimino-2-(6-methoxy-3-pyridyl)amino-3,5-dihydrophenazine] | 0.3 (≈ 0.644 µM) |  |
| COc1ccc(Nc2cc3nc4ccccc4n(-c4ccc(F)cc4)c-3c/c2=N\C2CCOCC2)cn1 [TBI-935, 5-(4-Fluorophenyl)-3-(4-tetrahydropyranyl)imino-2-(6-methoxy-3-pyridyl)amino-3,5-dihydrophenazine] | 0.205 (≈ 0.414 µM) |  |
| COc1ncccc1Nc1cc2nc3cc(F)ccc3n(-c3ccc(Cl)cc3)c-2c/c1=N\C1CCC(OC)CC1 (centres unmarked) [TBI-936, 8-Fluoro-5-(4-chlorophenyl)-3-(4-methoxycyclohexyl)imino-2-(2-methoxy-3-pyridyl)amino-3,5-dihydrophenazine] | 0.06 (≈ 0.108 µM) |  |
| COc1ncccc1Nc1cc2nc3cc(F)ccc3n(-c3ccc(Cl)cc3)c-2c/c1=N\C1CCOCC1 [TBI-937, 8-Fluoro-5-(4-chlorophenyl)-3-(4-tetrahydropyranyl)imino-2-(2-methoxy-3-pyridyl)amino-3,5-dihydrophenazine] | 0.125 (≈ 0.236 µM) |  |
| COC1CCC(/N=c2\cc3n(-c4ccc(Cl)cc4)c4ccc(F)cc4nc-3cc2Nc2ccc(C)nc2)CC1 (centres unmarked) [TBI-938, 8-Fluoro-5-(4-chlorophenyl)-3-(4-methoxycyclohexyl)imino-2-(6-methyl-3-pyridyl)amino-3,5-dihydrophenazine] | 0.125 (≈ 0.231 µM) |  |
| COc1ccc2nc3cc(Nc4cccnc4OC)/c(=N/C(C)C)cc-3n(-c3ccc(Cl)cc3)c2c1 [TBI-939, 7-Methoxy-5-(4-chlorophenyl)-3-(1-methylethyl)imino-2-(2-methoxy-3-pyridyl)amino-3,5-dihydrophenazine] | 0.125 (≈ 0.25 µM) |  |
| Cc1ccncc1Nc1cc2nc3ccccc3n(-c3ccc(F)cc3)c-2c/c1=N\C1CC1 [TBI-940, 5-(4-Fluorophenyl)-3-cyclopropylimino-2-(4-methyl-3-pyridyl)amino-3,5-dihydrophenazine] | 0.062 (≈ 0.142 µM) |  |
| COc1ccc2nc3cc(Nc4cccnc4OC)/c(=N/C4CCC(OC)CC4)cc-3n(-c3ccc(Cl)cc3)c2c1 (centres unmarked) [TBI-941, 7-Methoxy-5-(4-chlorophenyl)-3-(4-methoxycyclohexyl)imino-2-(2-methoxy-3-pyridyl)amino-3,5-dihydrophenazine] | 0.06 (≈ 0.105 µM) |  |
| COc1ccc2nc3cc(Nc4cccnc4OC)/c(=N/C4CCOCC4)cc-3n(-c3ccc(Cl)cc3)c2c1 [TBI-942, 7-Methoxy-5-(4-chlorophenyl)-3-(4-tetrahydropyranyl)imino-2-(2-methoxy-3-pyridyl)amino-3,5-dihydrophenazine] | 0.125 (≈ 0.231 µM) |  |
| Cc1ccc(Nc2cc3nc4cc(F)ccc4n(-c4ccc(Cl)cc4)c-3c/c2=N\C(C)C)cn1 [TBI-943, 8-Fluoro-5-(4-chlorophenyl)-3-(1-methylethyl)imino-2-(6-methyl-3-pyridyl)amino-3,5-dihydrophenazine] | 0.06 (≈ 0.127 µM) |  |
| Cc1ccc(Nc2cc3nc4ccccc4n(-c4ccc(Cl)c(Cl)c4)c-3c/c2=N\C2CC2)cn1 [TBI-944, 5-(3,4-Dichlorophenyl)-3-cyclopropylimino-2-(6-methyl-3-pyridyl)amino-3,5-dihydrophenazine] | 0.06 (≈ 0.123 µM) |  |
| Cc1ccc(Nc2cc3nc4ccccc4n(-c4ccc(Cl)c(Cl)c4)c-3c/c2=N\C2CCOCC2)cn1 [TBI-945, 5-(3,4-Dichlorophenyl)-3-(4-tetrahydropyranyl)imino-2-(6-methyl-3-pyridyl)amino-3,5-dihydrophenazine] | 0.25 (≈ 0.471 µM) |  |
| COc1ncccc1Nc1cc2nc3ccccc3n(-c3ccc(Cl)c(Cl)c3)c-2c/c1=N\C1CCC1 [TBI-946, 5-(3,4-Dichlorophenyl)-3-cyclobutylimino-2-(2-methoxy-3-pyridyl)amino-3,5-dihydrophenazine] | 0.06 (≈ 0.116 µM) |  |
| COc1ncccc1Nc1cc2nc3ccccc3n(-c3ccc(Cl)cc3Cl)c-2c/c1=N\C1CCOCC1 [TBI-947, 5-(2,4-Dichlorophenyl)-3-(4-tetrahydropyranyl)imino-2-(2-methoxy-3-pyridyl)amino-3,5-dihydrophenazine] | 0.06 (≈ 0.11 µM) |  |
| Cc1ccc(Nc2cc3nc4ccccc4n(-c4ccc(Cl)c(Cl)c4)c-3c/c2=N\C2CCC2)cn1 [TBI-948, 5-(3,4-Dichlorophenyl)-3-cyclobutylimino-2-(6-methyl-3-pyridyl)amino-3,5-dihydrophenazine] | 0.125 (≈ 0.25 µM) |  |
| Cc1ccc(Nc2cc3nc4ccc(F)cc4n(-c4ccc(Cl)c(Cl)c4)c-3c/c2=N\C2CCOCC2)cn1 [TBI-949, 7-Fluoro-5-(3,4-dichlorophenyl)-3-(4-tetrahydropyranyl)imino-2-(6-methyl-3-pyridyl)amino-3,5-dihydrophenazine] | 0.816 (≈ 1.49 µM) |  |
| Cc1ccc(Nc2cc3nc4ccccc4n(-c4ccc(OC(F)(F)F)cc4)c-3c/c2=N\C2CCOCC2)cn1 [TBI-950, 5-(4-Trifluoromethoxyphenyl)-3-(4-tetrahydropyranyl)imino-2-(6-methyl-3-pyridyl)amino-3,5-dihydrophenazine] | 0.035 (≈ 0.0642 µM) |  |
| CC(C)/N=c1\cc2n(-c3ccc(OC(F)(F)F)cc3)c3ccccc3nc-2cc1Nc1ncccn1 [TBI-951, 5-(4-Trifluoromethoxyphenyl)-3-(1-methylethyl)imino-2-(pyrimidin-2-yl)amino-3,5-dihydrophenazine] |  | 0.019 (≈ 0.0387 µM) |
| CC(C)/N=c1\cc2n(-c3ccc(OC(F)(F)F)cc3)c3ccccc3nc-2cc1Nc1ccccn1 [TBI-952, 5-(4-Trifluoromethoxyphenyl)-3-(1-methylethyl)imino-2-(2-pyridyl)amino-3,5-dihydrophenazine] |  | 0.093 (≈ 0.19 µM) |
| CC(C)/N=c1\cc2n(-c3ccc(OC(F)(F)F)cc3)c3ccccc3nc-2cc1Nc1cnccn1 [TBI-953, 5-(4-Trifluoromethoxyphenyl)-3-(1-methylethyl)imino-2-(pyrazin-2-yl)amino-3,5-dihydrophenazine] |  | 0.015 (≈ 0.0306 µM) |
| CC(C)/N=c1\cc2n(-c3ccc(OC(F)(F)F)cc3)c3ccccc3nc-2cc1Nc1ncccc1[N+](=O)[O-] [TBI-954, 5-(4-Trifluoromethoxyphenyl)-3-(1-methylethyl)imino-2-(3-nitro-2-pyridyl)amino-3,5-dihydrophenazine] |  | 0.03 (≈ 0.0561 µM) |
